# Legend:
# Format in all cases: in vivo
# [1] = target: American cockroaches; assay: Test chemical applied directly to thorax of insect using Pasteur Pipette (Table 12); details: 1 drop applied directly to thorax; one value per insect
# [2] = tested on: American cockroaches; assay: Direct spray toxicity of rosemary oil, wintergreen oil and their blend (Example 1); details: sprayed with approximately 3.7 grams; one value per insect
# Procedure: Studies were conducted to evaluate the individual toxicity, in terms of speed of action and mortality, of rosemary oil and wintergreen oil against American cockroaches, and then a blend of these two oils to determine if similar toxic effects could be obtained using a proprietary blend that was less expensive to produce and easier to employ in different end-use formulations. Methyl salicylate was used as wintergreen oil. American cockroaches were confined under a screened cap and then sprayed with approximately 3.7 grams of each test chemical using a trigger sprayer. Immediately after spraying, the insects were released into a large plastic container and observed for signs of toxicity. Three American cockroaches were used in each experiment. The times for immobilization (IM), knockdown (KD), and mortality were recorded for each test insect. An untreated control was provided.
# [3] = tested on: Melon Aphids Aphis gossypii; assay: Melon Aphids on squash (Table 11); details: 1 qt/acre, applied three times at one week interval
# Procedure: A formulation (DR-A-034) consisting of 5% w/w rosemary oil, 22.5% w/w wintergreen oil, 22.5% w/w mineral oil, 0.5% w/w lecithin (emulsifier), and 49.5% w/w water was prepared and labeled Hexacide™. Hexacide™ was applied in dilute form at different rates per acre to the pests itemized below in various greenhouse and field studies. In all of these studies, positive controls consisting of conventional pesticides were utilized for comparative efficacy.
# Randomized complete block design was used. Five replicates per treatment were performed. 100 gallons spray volume per acre (GPA). Latron CS-7 at 4 ml/gallon was added to all treatments. All foliar applied pesticidal compositions applied, except Admire and Platinum (soil insecticides). HEXACIDE™ Azadiractin and Pyganic applied three times at one week interval. Other products applied once.
Compound,KD (knockdown time) [1],Mortality (time) [1],IM (time for immobilization) [2],Mortality (time) [2],Mean % Aphids per Leaf ([3]; 6 DAT),Mean % Aphids per Leaf ([3]; 12 DAT),Mean % Aphids per Leaf ([3]; Pretreatment)
"COC(=O)c1ccccc1O [100% Methyl Salicylate, Methyl salicylate]",no KD,>5 m,45 s,>2 min,,,
C/C=C(\C)C(=O)O[C@H]1C[C@@H](OC(C)=O)[C@@]2(C(=O)OC)CO[C@H]3[C@@H](O)[C@@](C)([C@]45O[C@@]4(C)[C@H]4C[C@@H]5O[C@@H]5OC=C[C@@]54O)[C@H]4[C@]1(CO[C@]4(O)C(=O)OC)[C@@H]32 [Azadiractin],,,,,5.4 c %,15.1 c %,3.9 b %

# Reference: patent publication US20170118998A1, “PESTICIDAL COMPOSITIONS AND METHODS FOR USING SAME” (priority 1998, published 2017)
